Measured values as given in article PMC9646673, “A Novel, Orally Bioavailable, Small-Molecule Inhibitor of PCSK9 With Significant Cholesterol-Lowering Properties In Vivo” (Journal of Lipid Research, 2022).

Key:
[1] = tested on: plasma PCSK9 protein levels; test: Second efficacy study: plasma total PCSK9 (ELISA); format: in vivo, mouse; conditions: 50 mg/kg BID PO, from day 7, sustained for the remaining 4 weeks
Source text: (§1) Animal experiments were approved by the governmental central committee on animal experiments (AVD5010020172064) and TNO’s animal welfare body (TNO-471 and TNO-482). Female APOE∗3-Leiden.CETP transgenic mice (11–16 weeks of age) were bred at the animal facility of TNO-InnoSer (Leiden, The Netherlands). Female animals were used in this study as they are more responsive to dietary cholesterol and fat than males and therefore typically develop atherosclerosis more rapidly than male APOE∗3-Leiden and APOE∗3-Leiden.CETP mice on cholesterol-containing diets ([33], [34]). […] Body weight, food intake, and clinical signs of behavior were monitored throughout the studies. […]
In both studies, blood samples were collected at weekly intervals via tail vein sampling after fasting the mice for 4 h. […] Total plasma cholesterol levels were determined using a Cholesterol CHOD-PAP kit according to the manufacturer’s instructions. Plasma HDL-C levels were determined by first precipitating apoB-containing lipids using PEG 6000/glycine and then utilizing the Cholesterol CHOD-PAP kit ([35]). Non-HDL-C levels were determined by subtracting HDL-C levels from total cholesterol levels ([32]). Group-pooled lipoprotein profiles were determined by FPLC analysis using an AKTApurifier 10 FPLC system (GE Healthcare, Chicago, IL). […]

APOE∗3-Leiden.CETP mice [2] = test: First efficacy study: body weight, food intake, plasma AST and ALT; format: in vivo, mouse; design: Body weight (mean ± SD) / Food intake (mean ± SD): unit not given here; conditions: for Plasma ALT / Plasma AST: group-pooled
Source text: (§2) Animal experiments were approved by the governmental central committee on animal experiments (AVD5010020172064) and TNO’s animal welfare body (TNO-471 and TNO-482). Female APOE∗3-Leiden.CETP transgenic mice (11–16 weeks of age) were bred at the animal facility of TNO-InnoSer (Leiden, The Netherlands). Female animals were used in this study as they are more responsive to dietary cholesterol and fat than males and therefore typically develop atherosclerosis more rapidly than male APOE∗3-Leiden and APOE∗3-Leiden.CETP mice on cholesterol-containing diets ([33], [34]). Although measurements of atherosclerosis were not included as part of the present study, females were used with the prospect in mind that atherosclerosis studies will follow. The mice were housed under standard conditions that included 12 h light-dark cycles and access to a WTD and sterilized tap water ad libitum. Body weight, food intake, and clinical signs of behavior were monitored throughout the studies. […] Time t = 0 (weeks) was designated as the time at which mice were matched into groups after the 3-week run-in period in each efficacy study.
(§3) Treatment times were around 8:00 am and 4:00 pm each day. Throughout the in-life phase of the study, body weight and food intake (per cage) were measured at regular predetermined intervals while blood samples were collected every 7 days. The last gavage was administered on day 27. On day 28, the mice were sacrificed by CO2 asphyxiation, EDTA-plasma was obtained via heart puncture, and the liver was weighed and collected. Throughout the study, plasma cholesterol, triglycerides, HDL-C, lipoprotein profiles, PCSK9 expression levels, aspartate transaminase levels (AST), and alanine transaminase levels (ALT) were measured as described below.
(§4) In both studies, blood samples were collected at weekly intervals via tail vein sampling after fasting the mice for 4 h. Blood samples were centrifugated (4500 g at 4°C), and the plasma was collected for the following analyses. Total plasma cholesterol levels were determined using a Cholesterol CHOD-PAP kit according to the manufacturer’s instructions. Plasma HDL-C levels were determined by first precipitating apoB-containing lipids using PEG 6000/glycine and then utilizing the Cholesterol CHOD-PAP kit ([35]). Non-HDL-C levels were determined by subtracting HDL-C levels from total cholesterol levels ([32]). Group-pooled lipoprotein profiles were determined by FPLC analysis using an AKTApurifier 10 FPLC system (GE Healthcare, Chicago, IL). Plasma PCSK9 levels were determined using a Mouse PCSK9 Quantikine ELISA kit as per the manufacturer’s protocol. ALT and AST levels of group-pooled samples were measured using the Roche Reflotron Plus System (Mannheim, Germany).

APOE∗3-Leiden.CETP mice [3] = test: Second efficacy study: body weight, food intake, plasma ALT and AST; format: in vivo, mouse; design: Body weight (mean ± SD) / Food intake (mean ± SD): unit not given here; conditions: NYX-PCSK9i 50 mg/kg BID PO, atorvastatin […]; for Plasma ALT / Plasma AST: group-pooled
Source text: as §2, §4

APOE∗3-Leiden.CETP mice [4] = test: Fecal bile acid and neutral sterol content, cholesterol balance
Procedure: In a subsequent efficacy study, mice were treated identically to the first study with the following modifications. Mice in group 1 received vehicle solution (5% DMSO, 5% Solutol HS15, and 90% saline) twice daily by oral gavage. […] The study ran for a total of 35 days with blood and tissue collection and analysis performed as described below.
Analyses of fecal neutral sterol and bile acid contents were performed by gas chromatographic analysis as previously detailed ([37], [38]). Per treatment group, two cages of four mice per cage were used, with feces collected twice per cage during the last week of the study. The net cholesterol uptake, or cholesterol balance, was defined as the dietary cholesterol intake (food intake measured weekly) minus the summed fecal output of neutral sterols and bile acids.

[5] = tested on: Hmgcr, Srebf2, Pcsk9, Ldlr, Mttp transcripts in liver tissue; test: Hepatic gene transcription (qPCR), day 35; format: in vivo, mouse; conditions: 50 mg/kg BID PO, 5 weeks
Procedure: The transcript levels of select genes in the liver tissue of mice treated with either vehicle or NYX-PCSK9i were analyzed. RNA was isolated from liver tissue using an RNA STAT-60 kit as per the manufacturer’s protocol. RNA concentrations were determined using a NanoDrop 2000 spectrophotometer (Thermo Fisher Scientific, Rockford, IL), and up to 2 μg of RNA was used as a template for cDNA synthesis using a High-capacity RNA-to-cDNA kit according to the manufacturer’s instructions. Quantitative PCR was performed with fluorescein amidite-labeled TaqMan® Assay primers and TaqMan® Fast Universal PCR Master Mix using a QuantStudio 6 Flex Real-Time PCR system (Applied Biosystems). DNA was amplified by applying a standard cycle protocol with an annealing temperature of 60°C and 40 cycles of amplification. Differential transcriptional activity was calculated using the 2^–ΔΔCt method.

[6] = tested on: plasma PCSK9 protein levels; test: First efficacy study: plasma total PCSK9 (ELISA); format: in vivo, mouse; conditions: 50 mg/kg BID PO, day 28
Source text: as §1
as §3, with “The last gavage was administered on day 27. On day 28, the mice were sacrificed by CO2 asphyxiation, EDTA-plasma was obtained via heart puncture, and the liver was weighed and collected.” left out
In both studies, blood samples were collected at weekly intervals via tail vein sampling after fasting the mice for 4 h. […] Total plasma cholesterol levels were determined using a Cholesterol CHOD-PAP kit according to the manufacturer’s instructions. […]

PCSK9-LDLR interaction = target: T1, PCSK9-LDLR interaction (Homo sapiens, UniProt Q8NBP7); test: CircuLex PCSK9-LDLR in vitro binding assay; conditions: in vitro biochemical binding assay; read-out: IC50 against the PCSK9-LDLR interaction
T1 construct: purchased CycLex (Nagano, Japan) CY8150
Source text: Ethics was granted by the Comité de Protection des Personnes Sud Méditerranée (ID: 2020-A00196-33). Studies using human samples abided by the Declaration of Helsinki principles.

[7] = 30 mg/kg BID PO, day 0 (baseline)
[8] = 50 mg/kg BID PO, day 0 (baseline)

T1 sequence (Q8NBP7 153-692): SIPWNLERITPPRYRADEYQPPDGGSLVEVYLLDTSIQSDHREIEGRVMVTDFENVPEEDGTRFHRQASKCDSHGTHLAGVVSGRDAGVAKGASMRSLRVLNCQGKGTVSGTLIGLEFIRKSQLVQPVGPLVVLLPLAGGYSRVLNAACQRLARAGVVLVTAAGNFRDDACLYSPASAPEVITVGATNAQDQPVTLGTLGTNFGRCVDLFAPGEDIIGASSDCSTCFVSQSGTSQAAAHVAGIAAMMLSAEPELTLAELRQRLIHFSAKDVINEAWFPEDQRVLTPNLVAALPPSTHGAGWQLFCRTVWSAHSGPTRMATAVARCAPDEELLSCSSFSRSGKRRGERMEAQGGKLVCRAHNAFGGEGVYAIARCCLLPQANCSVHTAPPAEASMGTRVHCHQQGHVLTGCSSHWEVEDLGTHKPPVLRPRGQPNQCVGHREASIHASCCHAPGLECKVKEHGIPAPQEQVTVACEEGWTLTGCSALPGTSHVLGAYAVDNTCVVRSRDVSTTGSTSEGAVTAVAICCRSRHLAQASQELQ
T1 sequence (Q8NBP7 31-152 partner limits assumed): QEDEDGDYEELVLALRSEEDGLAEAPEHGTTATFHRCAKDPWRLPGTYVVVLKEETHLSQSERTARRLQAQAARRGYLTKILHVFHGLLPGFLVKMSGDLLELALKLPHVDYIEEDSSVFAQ

With `Cc1cn(-c2cc(CN3CCC[C@H](N)C3)cc(NC(=O)c3cc(-c4ccccc4)ccn3)c2)cn1` [NYX-PCSK9i] the “elevation of total plasma PCSK9 levels” value [1] was “approximately 2 fold”, the “Body weight (mean ± SD)” value (APOE∗3-Leiden.CETP mice [2]; [7]) was 21.9 ± 1.3 and the “Food intake (mean ± SD)” value (APOE∗3-Leiden.CETP mice [2]; [7]) was 3.3 ± 0.3. For the same compound, the “Body weight (mean ± SD)” value (APOE∗3-Leiden.CETP mice [2]; 30 mg/kg BID PO, day 7) was 22.0 ± 1.6, the “Food intake (mean ± SD)” value (APOE∗3-Leiden.CETP mice [2]; 30 mg/kg BID PO, day 7) was 2.7 ± 0.3 and the “Food intake (mean ± SD)” value (APOE∗3-Leiden.CETP mice [2]; 30 mg/kg BID PO, day 14) was 2.6 ± 0.6. The “Food intake (mean ± SD)” value (APOE∗3-Leiden.CETP mice [2]; 30 mg/kg BID PO, day 21) was 2.4 ± 0.2, the “Body weight (mean ± SD)” value (APOE∗3-Leiden.CETP mice [2]; 30 mg/kg BID PO, day 28) was 22.0 ± 1.1 and the “Food intake (mean ± SD)” value (APOE∗3-Leiden.CETP mice [2]; 30 mg/kg BID PO, day 28) was 3.0 ± 0.1. For the same compound, the “Food intake (mean ± SD)” value (APOE∗3-Leiden.CETP mice [2]; [8]) was 3.3 ± 0.3, the “Body weight (mean ± SD)” value (APOE∗3-Leiden.CETP mice [2]; 50 mg/kg BID PO, day 7) was 21.8 ± 1.3 and the “Food intake (mean ± SD)” value (APOE∗3-Leiden.CETP mice [2]; 50 mg/kg BID PO, day 7) was 2.6 ± 0.0. For the same compound, the “Body weight (mean ± SD)” value (APOE∗3-Leiden.CETP mice [2]; 50 mg/kg BID PO, day 14) was 21.8 ± 1.1, the “Food intake (mean ± SD)” value (APOE∗3-Leiden.CETP mice [2]; 50 mg/kg BID PO, day 14) was 2.9 ± 0.0 and the “Body weight (mean ± SD)” value (APOE∗3-Leiden.CETP mice [2]; 50 mg/kg BID PO, day 21) was 21.5 ± 1.4. The “Food intake (mean ± SD)” value (APOE∗3-Leiden.CETP mice [2]; 50 mg/kg BID PO, day 21) was 2.7 ± 0.0, the “Body weight (mean ± SD)” value (APOE∗3-Leiden.CETP mice [2]; 50 mg/kg BID PO, day 28) was 21.6 ± 1.1 and the “Food intake (mean ± SD)” value (APOE∗3-Leiden.CETP mice [2]; 50 mg/kg BID PO, day 28) was 2.7 ± 0.1. The “plasma levels of the liver enzymes AST and ALT compared to vehicle” value (APOE∗3-Leiden.CETP mice [2]; 30 and 50 mg/kg BID PO, 28 days) was “remained stable”, the “Plasma ALT” value (APOE∗3-Leiden.CETP mice [2]; [7]) was 76.8 U/L and the “Plasma AST” value (APOE∗3-Leiden.CETP mice [2]; [7]) was 185.2 U/L. The “Plasma ALT” value (APOE∗3-Leiden.CETP mice [2]; 30 mg/kg BID PO, day 7) was 69.6 U/L, the “Plasma AST” value (APOE∗3-Leiden.CETP mice [2]; 30 mg/kg BID PO, day 7) was 175.2 U/L and the “Plasma ALT” value (APOE∗3-Leiden.CETP mice [2]; 30 mg/kg BID PO, day 14) was 70.0 U/L. The “Plasma AST” value (APOE∗3-Leiden.CETP mice [2]; 30 mg/kg BID PO, day 14) was 158.8 U/L, the “Plasma ALT” value (APOE∗3-Leiden.CETP mice [2]; 30 mg/kg BID PO, day 21) was 55.6 U/L and the “Plasma AST” value (APOE∗3-Leiden.CETP mice [2]; 30 mg/kg BID PO, day 21) was 156.8 U/L. For the same compound, the “Plasma ALT” value (APOE∗3-Leiden.CETP mice [2]; 30 mg/kg BID PO, day 28) was 35.6 U/L, the “Plasma AST” value (APOE∗3-Leiden.CETP mice [2]; 30 mg/kg BID PO, day 28) was 84 U/L and the “Plasma ALT” value (APOE∗3-Leiden.CETP mice [2]; [8]) was 70.0 U/L. For the same compound, the “Plasma AST” value (APOE∗3-Leiden.CETP mice [2]; [8]) was 170.8 U/L, the “Plasma ALT” value (APOE∗3-Leiden.CETP mice [2]; 50 mg/kg BID PO, day 7) was 74.8 U/L and the “Plasma AST” value (APOE∗3-Leiden.CETP mice [2]; 50 mg/kg BID PO, day 7) was 181.2 U/L. For the same compound, the “Plasma ALT” value (APOE∗3-Leiden.CETP mice [2]; 50 mg/kg BID PO, day 14) was 56 U/L, the “Plasma AST” value (APOE∗3-Leiden.CETP mice [2]; 50 mg/kg BID PO, day 14) was 147.6 U/L and the “Plasma ALT” value (APOE∗3-Leiden.CETP mice [2]; 50 mg/kg BID PO, day 21) was 47.6 U/L. The “Plasma AST” value (APOE∗3-Leiden.CETP mice [2]; 50 mg/kg BID PO, day 21) was 120.4 U/L, the “Plasma ALT” value (APOE∗3-Leiden.CETP mice [2]; 50 mg/kg BID PO, day 28) was 38 U/L and the “Plasma AST” value (APOE∗3-Leiden.CETP mice [2]; 50 mg/kg BID PO, day 28) was 107 U/L. For the same compound, the “Body weight (mean ± SD)” value (APOE∗3-Leiden.CETP mice [3]; day 0 (baseline)) was 21.9 ± 1.7, the “Food intake (mean ± SD)” value (APOE∗3-Leiden.CETP mice [3]; day 0 (baseline)) was 3.4 ± 0.3 and the “Food intake (mean ± SD)” value (APOE∗3-Leiden.CETP mice [3]; day 7) was 3.5 ± 0.3. For the same compound, the “Body weight (mean ± SD)” value (APOE∗3-Leiden.CETP mice [3]; day 14) was 23.0 ± 2.4, the “Food intake (mean ± SD)” value (APOE∗3-Leiden.CETP mice [3]; day 14) was 3.4 ± 0.0 and the “Body weight (mean ± SD)” value (APOE∗3-Leiden.CETP mice [3]; day 21) was 22.4 ± 2.0. The “Food intake (mean ± SD)” value (APOE∗3-Leiden.CETP mice [3]; day 21) was 2.7 ± 0.0, the “Body weight (mean ± SD)” value (APOE∗3-Leiden.CETP mice [3]; day 28) was 21.9 ± 2.1 and the “Food intake (mean ± SD)” value (APOE∗3-Leiden.CETP mice [3]; day 28) was 2.7 ± 0.1. The “Food intake (mean ± SD)” value (APOE∗3-Leiden.CETP mice [3]; day 35) was 2.7 ± 0.3, the “Plasma ALT” value (APOE∗3-Leiden.CETP mice [3]; day 0 (baseline)) was 91 U/L and the “Plasma AST” value (APOE∗3-Leiden.CETP mice [3]; day 0 (baseline)) was 91 U/L. The “Plasma ALT” value (APOE∗3-Leiden.CETP mice [3]; day 14) was 84 U/L, the “Plasma AST” value (APOE∗3-Leiden.CETP mice [3]; day 14) was 84 U/L and the “Plasma ALT” value (APOE∗3-Leiden.CETP mice [3]; day 28) was 36 U/L. The “Plasma AST” value (APOE∗3-Leiden.CETP mice [3]; day 28) was 36 U/L, the “Plasma ALT” value (APOE∗3-Leiden.CETP mice [3]; day 35) was 42 U/L and the “Plasma AST” value (APOE∗3-Leiden.CETP mice [3]; day 35) was 42 U/L. The “share of fecal neutral sterols that was cholesterol” value (APOE∗3-Leiden.CETP mice [4]; data not shown) was “more than 95%”, the “cholesterol balance (dietary cholesterol intake minus fecal bile acids and neutral sterols)” value (APOE∗3-Leiden.CETP mice [4]; final week of 35-day study) was “negative” and the “increase in hepatic transcription of Pcsk9” value [5] was 61%. The “upregulation of hepatic Srebf2 transcript” value [5] was 33%, the “maximal increase in plasma PCSK9 protein levels” value [6] was 2 fold and the IC50 (PCSK9-LDLR interaction) was 323 nM.
